Conditions in all cases: incubation time: 72 h
One assay has as its system Hs578T. The assay can be described thus: drug sensitivity score (DSS), CellTox Green (DSS (AUC-based score)); higher = stronger drug effect (viability inhibition or cytotoxicity); extreme values may be limits of the assay. In outline:
(§1)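 Each compound occupied 5 concentrations in 10-fold steps over its own 10,000-fold range in 384-well plates, into which breast cancer cell lines were seeded as 20 µl suspension. Following 72 h of incubation, CellTox Green fluorescence (485/520 nm) was measured, and CellTiter-Glo luminescence was measured after 10 min at room temperature. Plates were individually normalised to 0.1 % DMSO and a positive kill control. From the area under the fitted dose-response curve, a drug sensitivity score was calculated.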

For the next assay, the system named is MDA-MB-453. The description is as above. In outline:
as §1

The next assay deals with MFM-223. The assay is described as above. The method, boiled down: as §1
For a further assay, the system named is MDA-MB-468. The assay is described as above. The method, boiled down: as §1
For another assay, the system named is CAL-120. The assay is described as above. In outline: as §1
Another assay has as its system MDA-MB-231. Described as above. In outline:
as §1

The test system of another assay is HDQ-P1. The assay is described as above. The method, boiled down:
as §1

The subject of a further assay is BT-549. Described as above. In outline:
as §1

A further assay concerns HCC1599. The assay is described as above. The method, boiled down:
as §1

A further assay concerns CAL-85-1. The assay is described as above. In outline:
as §1

For assay [1], the system named is CAL-51. The assay is described as above. In outline: as §1
The next assay concerns DU-4475. The description is as above. The method, boiled down:
as §1

Another assay deals with MCF-10A. The assay is described as above. In outline:
as §1

Assay [2] concerns CAL-148. The assay is described as above. In outline:
as §1

The next assay deals with BT-474. The assay is described as above. The method, boiled down: as §1
Another assay relates to HCC1143. Described as above. In outline:
as §1

Assay [3] relates to MDA-MB-436. The assay is described as above. The method, boiled down: as §1
The subject of another assay is HCC1937. The assay is described as above. In outline:
as §1

The subject of assay [4] is CAL-51. The assay can be described thus: drug sensitivity score (DSS), CellTiter-Blue viability (DSS (AUC-based score)); higher = stronger viability inhibition; extreme values may be limits of the assay. In outline:
(§2)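 The drug sensitivity score was derived from the area under a fitted dose-response curve. To obtain the curves, breast cancer cells (20 µl suspension) were plated into 384-well plates with compound at 5 or 9 concentrations and kept for 72 h. Viability was measured by CellTiter-Blue fluorescence at 560/590 nm, with each plate normalised to 0.1 % DMSO and a positive kill control.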
(Resazurin is reduced to fluorescent resorufin, in cell work by metabolically active cells.)

The subject of assay [5] is CAL-148. The assay is described as above. The method, boiled down: as §2
Assay [6] deals with MDA-MB-436. Described as above. In outline: as §2

For the compound `CO[C@H]1C[C@@H]2CC[C@@H](C)[C@@](O)(O2)C(=O)C(=O)N2CCCC[C@H]2C(=O)O[C@H]([C@H](C)C[C@@H]2CC[C@@H](O)[C@H](OC)C2)CC(=O)[C@H](C)/C=C(\C)[C@@H](O)[C@@H](OC)C(=O)[C@H](C)C[C@H](C)/C=C/C=C/C=C/1C` [Sirolimus], the drug sensitivity score in the assay on Hs578T, with MDA-MB-453, in the assay on MFM-223, in the assay on MDA-MB-468, with CAL-120 and with MDA-MB-231 was 0 throughout. The drug sensitivity score in the assay with HDQ-P1, with BT-549, with HCC1599, in the assay on CAL-85-1, with CAL-51 [1] and with DU-4475 was 0 in each case. The drug sensitivity score in the assay on MCF-10A was determined as 0; in the assay with CAL-148 [2] it was 0; in the assay with BT-474, 0; in the assay with HCC1143 it was 0; in the assay on MDA-MB-436 [3], 0; in the assay with HCC1937, 1.4. The drug sensitivity score came to 23.8 in the assay with CAL-51 [4], 19.8 in the assay with CAL-148 [5] and 0 in the assay on MDA-MB-436 [6].

Regarding `CC/C(=C(\c1ccccc1)c1ccc(OCCN(C)C)cc1)c1ccccc1` [Tamoxifen], the drug sensitivity score with Hs578T came to 0; with MDA-MB-453, 1.55; in the assay with MFM-223 it was 0; in the assay on MDA-MB-468, 3.42; with CAL-120, 0; in the assay on MDA-MB-231, 3.47. Further, the drug sensitivity score was 0 in the assay on HDQ-P1; 0 with BT-549; 0 in the assay on HCC1599; 1.12 with CAL-85-1; 0 in the assay on CAL-51 [1]; 0 with DU-4475. The drug sensitivity score in the assay with MCF-10A was 0; in the assay with CAL-148 [2] it was 0; in the assay on BT-474 it was 4.12; in the assay on HCC1143, 0; in the assay on MDA-MB-436 [3], 1.29; in the assay on HCC1937, 17.1. The drug sensitivity score came to 0 in the assay on CAL-51 [4], 0 in the assay with CAL-148 [5] and 2.35 in the assay on MDA-MB-436 [6].

Take `COc1cc2c(N3CCN(C(=O)Nc4ccc(OC(C)C)cc4)CC3)ncnc2cc1OCCCN1CCCCC1` [Tandutinib]: the drug sensitivity score in the assay with Hs578T, in the assay with MDA-MB-453, in the assay with MFM-223, in the assay with MDA-MB-468, with CAL-120 and with MDA-MB-231 was 0 each time. Besides, the drug sensitivity score in the assay on HDQ-P1, in the assay on BT-549, in the assay on HCC1599, in the assay on CAL-85-1, in the assay on CAL-51 [1] and with DU-4475 was 0 in each case. Moreover, the drug sensitivity score with MCF-10A, in the assay with CAL-148 [2], with BT-474, in the assay with HCC1143, in the assay with MDA-MB-436 [3] and in the assay with HCC1937 was 0 throughout. In addition, the drug sensitivity score with CAL-51 [4] is 0; in the assay on CAL-148 [5], 0.668; in the assay on MDA-MB-436 [6] it was 0.

`Cn1nnc2c(C(N)=O)ncn2c1=O` [Temozolomide]: the drug sensitivity score in the assay with Hs578T, in the assay with MDA-MB-453, with MFM-223, in the assay with MDA-MB-468, in the assay on CAL-120 and with MDA-MB-231 was 0 each time. The drug sensitivity score in the assay on HDQ-P1, with BT-549, in the assay with HCC1599, in the assay on CAL-85-1, with CAL-51 [1] and with DU-4475 was 0 throughout. The drug sensitivity score in the assay with MCF-10A, in the assay on CAL-148 [2], in the assay with BT-474, with HCC1143, with MDA-MB-436 [3] and with HCC1937 was 0 in each case. Also, the drug sensitivity score in the assay with CAL-51 [4], in the assay with CAL-148 [5] and with MDA-MB-436 [6] was 0 throughout.

In the case of `CC[C@@H]1C(=O)N(C)c2cnc(Nc3ccc(C(=O)N[C@H]4CC[C@H](N5CCN(CC6CC6)CC5)CC4)cc3OC)nc2N1C(C)C` [Volasertib], the drug sensitivity score in the assay on Hs578T worked out at 10.7; in the assay with MDA-MB-453, 0; in the assay with MFM-223, 14.5; with MDA-MB-468 it was 0; in the assay with CAL-120 it was 0; with MDA-MB-231, 3.33. For the same compound, the drug sensitivity score with HDQ-P1 was found to be 7.16; in the assay with BT-549, 3.98; in the assay on HCC1599, 0; in the assay on CAL-85-1 it was 8.26; with CAL-51 [1] it was 14.5; with DU-4475 it was 0. Moreover, the drug sensitivity score was found to be 19.4 in the assay with MCF-10A; 0 in the assay on CAL-148 [2]; 0 in the assay with BT-474; 14.8 in the assay with HCC1143; 0 in the assay on MDA-MB-436 [3]; 17.3 with HCC1937. The drug sensitivity score in the assay on CAL-51 [4] turned out to be 17.6; in the assay with CAL-148 [5], 17.8; with MDA-MB-436 [6] it was 3.18.

Source of the values: the supplement of paper PMC4862054.
